Results: patent US5889053A, “Farnesyl transferase inhibitors, preparation thereof and pharmaceuticals compositions containing said inhibitors” (Rhone-Poulenc Rorer S.A., priority 1995, dated 1999)

Assays:
[1] = target: T1, human farnesyl transferase (Homo sapiens, UniProt P49354+P49356); assay: Inhibition of farnesyl transferase and of farnesylation of the Ras protein ([3H]farnesyl transfer from [3H]FPP to p21 H-Ras); type: biochemical; settings: p21 H-Ras substrate, 20 min at 37° C., 9 concentrations; read-out: Inhibitory activity IC50
T1 construct: human farnesyl transferase purified from THP1 cell cultures; endogenous in cells; host or cells: THP1
Method: Farnesyl transferase activity is determined by the quantity of [^3 H]farnesyl transferred from [^3 H]farnesyl pyrophosphate ([^3 H]FPP) to the p21 H-Ras protein. The standard reaction mixture is composed, for a final volume of 60 μl, of 50 mM Tris-HCl, 5 mM MgCl2, 5 mM dithiothreitol, 0.2% octyl β-D-glucopyranoside, 200 picomol p21 H-Ras, 4.5 picomol [^3 H]FPP (activity 61000 dpm/picomol).
Reaction is initiated by adding approximately 5 ng of human farnesyl transferase purified from THP1 cell cultures. After incubation for 20 minutes at 37° C. in a microtitration plate containing 96 1-cm^3 wells per plate (Titer Plate®, Beckman), the reaction is stopped by adding 0.4 cm^3 of 0.1% SDS in methanol at 0° C. The mixture is then treated with 0.4 cm^3 of 30% trichloroacetic acid (TCA) in methanol. The plates are left in ice for 1 hour. The precipitated contents are then retained on Filtermat®, Pharmacia) glass fibre membranes with the filtration unit (Combi Cell Harvester®, Skatron), and rinsed with 6% trichloroacetic acid in distilled water. The membranes are dried in a microwave oven, then impregnated with scintillation medium by melting of Meltilex® (Pharmacia) under hot air, and lastly counted in cpm in a β-Plate counter® (LKB). Each test is repeated 3 times.
The unit of activity is defined as 1 picomole of [^3 H]FPP transferred to p21 H-Ras in 20 minutes.
The percentage inhibition values are obtained by comparison of the tests with and without inhibitor after deduction of blanks, the IC50 values being measured on the basis of the inhibitions obtained with 9 different concentrations using Enzfitter® or Grafit® software.

[2] = test system: farnesylation of the Ras protein in THAC cells (CCL 39 cells transfected with activated Ha-Ras); assay: Activity against cells: inhibition of farnesylation of the Ras protein in THAC cells (Western blot); type: cell-based; settings: CCL39, 24 h at 37° C.
Method: The activity against cells can be determined in the following way:
The cell line is the THAC line (CCL 39 cells transfected with activated Ha-Ras) according to K. Seuwen et al., EMBO J., 7(1) 161-168 (1988). The cells are cultured in Petri dishes with a diameter of 6 cm containing a DMEM medium, 5% foetal calf serum and 1% G418.
After culturing for 24 hours, the culture medium is changed (with or without the serum) and the product to be studied is added in solution in dimethylformamide (DMF), in the presence or in the absence of DTT (final concentrations of 0.5% in DMF and 0.1 mM in DTT). After culturing for 24 hours at 37° C., the cells are lysed in 1 cm^3 of lysis buffer (20 mM Tris, HCl, 1% Triton X114, 5 mM MgCl2, 7 mM DTT, 150 mM NaCl, pH=7.4). The lysates are clarified by centrifuging at 4000 revolutions/minute for 10 minutes. […] The radioactivity of the bands corresponding to farnesylated Ras and to non-farnesylated Ras makes it possible to determine the percentage of inhibition of farnesylation of the Ras protein.

Compound | IC50 [1] [nM] | inhibition at 10 µM [2] [%]
COC(=O)[C@H](CCSC)NC(=O)c1cc(NC[C@@H](N)CS)cc2ccccc12 [Example 5, methyl ester of N-[3-(2(R)-amino-3-mercaptopropylamino)naphthyl-1-carbonyl]-L-methionine] | 300 | –
COC(=O)[C@H](CCSC)NC(=O)c1ccc(NC[C@@H](N)CS)c2ccccc12 [Example 2, methyl ester of N-[4-(2(R)-amino-3-mercaptopropylamino)naphthyl-1-carbonyl]-L-methionine] | 100 | 40
CSCC[C@H](NC(=O)c1cc(NC[C@@H](N)CS)cc2ccccc12)C(=O)O [Example 4, N-[3-(2(R)-amino-3-mercaptopropylamino)naphthyl-1-carbonyl]-L-methionine] | 31 | –
CSCC[C@H](NC(=S)c1cc(NC[C@@H](N)CS)cc2ccccc12)C(=O)O [Example 6, N-[3-(2(R)-amino-3-mercaptopropylamino)naphthyl-1-thiocarbonyl]-L-methionine] | 55 | –
CSCC[C@H](NC(=O)c1ccc(NC[C@@H](N)CS)c2ccccc12)C(=O)O [Example 1, N-[4-(2(R)-amino-3-mercaptopropylamino)naphthyl-1-carbonyl]-L-methionine] | 23 | –
